Assay results published in patent US8629102B2, “3-hydroxyisothiazole 1-oxide derivatives” (Mochida Pharmaceutical Co., Ltd., priority 2011, dated 2014).

The compounds below were run against T1, GPR40 of human origin (Homo sapiens, UniProt O14842) (assay: Agonist action on GPR40 of human origin (intracellular Ca2+ change)). Conditions: CHO cell strain stably expressing GPR40 of human origin; change in Ca2+ concentration, fluorescent calcium indicator.
T1 construct: expressed in transfected cells
T1 sequence (O14842 whole entry): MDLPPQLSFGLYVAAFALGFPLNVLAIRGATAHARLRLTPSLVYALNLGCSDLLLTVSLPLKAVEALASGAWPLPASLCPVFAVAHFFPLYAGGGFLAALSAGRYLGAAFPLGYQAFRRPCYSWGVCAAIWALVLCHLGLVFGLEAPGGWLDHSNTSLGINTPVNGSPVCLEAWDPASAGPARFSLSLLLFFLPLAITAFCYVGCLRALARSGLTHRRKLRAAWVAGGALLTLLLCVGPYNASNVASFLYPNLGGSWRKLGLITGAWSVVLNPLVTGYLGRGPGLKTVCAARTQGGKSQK
Assay type: cell-based
Method in brief: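 CHO cells stably expressing human GPR40, cultured overnight, then loaded 1 h with Calcium 4 dye plus probenecid in HEPES-buffered HBSS. Compound added in 20 mM HEPES-HBSS; intracellular Ca2+ change read by fluorescence, EC50 from dose-response of fluorescence change.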

| SMILES | EC50 |
| --- | --- |
| Cc1nc(OCCC(C)(C)O)ccc1Oc1cccc2c1OCC2Oc1ccc(-c2cc(O)n[s+]2[O-])cc1 (single isomer, unassigned) [Example 153-a, 3-hydroxy-5-(4-((7-((6-(3-hydroxy-3-methylbutoxy)-2-methylpyridin-3-yl)oxy)-2,3-dihydrobenzofuran-3-yl)oxy)phenyl)isothiazole 1-oxide] | < 0.3 µM |
| CC(C)(O)CCOc1ccc(Oc2cccc3c2CC[C@H]3Oc2ccc(-c3cc(O)n[s+]3[O-])cc2)cn1 (stereo partly drawn) [Example 97, 3-hydroxy-5-(4-(((R)-4-((6-(3-hydroxy-3-methylbutoxy)pyridin-3-yl)oxy)-2,3-dihydro-1H-inden-1-yl)oxy)phenyl)isothiazole 1-oxide] | < 0.3 µM |
| N#Cc1ccc(Oc2cccc3c2OCC3Oc2ccc(-c3cc(O)n[s+]3[O-])cc2)cc1 (single isomer, unassigned) [Example 144-b, 4-((3-(4-(3-hydroxy-1-oxidoisothiazol-5-yl)phenoxy)-2,3-dihydrobenzofuran-7-yl)oxy)benzonitrile] | 0.3 to 3 µM |
| [O-][s+]1nc(O)cc1-c1ccc(O[C@@H]2CCc3c(-c4cc(F)ccc4OCc4ccccc4)cccc32)cc1 (stereo partly drawn) [Example 62, 5-(4-(((R)-4-(2-benzyloxy-5-fluorophenyl)-2,3-dihydro-1H-inden-1-yl)oxy)phenyl)-3-hydroxyisothiazole 1-oxide] | 0.3 to 3 µM |
| Cc1nc(OCCC(C)(C)O)ccc1-c1cccc2c1OCC2Oc1ccc(-c2cc(O)n[s+]2[O-])cc1 (single isomer, unassigned) [Example 154-a, 3-hydroxy-5-(4-((7-(6-(3-hydroxy-3-methylbutoxy)-2-methylpyridin-3-yl)-2,3-dihydrobenzofuran-3-yl)oxy)phenyl)isothiazole 1-oxide] | < 0.3 µM |
| [O-][s+]1nc(O)cc1-c1ccc(O[C@@H]2CCc3c(-c4cc(C(F)(F)F)ccc4Cl)cccc32)cc1 (stereo partly drawn) [Example 68, 5-(4-(((R)-4-(2-chloro-5-trifluoromethylphenyl)-2,3-dihydro-1H-inden-1-yl)oxy)phenyl)-3-hydroxyisothiazole 1-oxide] | 0.3 to 3 µM |
| CC(C)Oc1ccc(-c2cccc3c2CC[C@H]3Oc2ccc(-c3cc(O)n[s+]3[O-])cc2)cc1 (stereo partly drawn) [Example 31, 5-(4-(((R)-4-(4-isopropoxyphenyl)-2,3-dihydro-1H-inden-1-yl)oxy)phenyl)-3-hydroxyisothiazole 1-oxide] | 0.3 to 3 µM |
| [O-][s+]1nc(O)cc1-c1ccc(O[C@@H]2CCc3c(Oc4ccc(OC(F)(F)F)cc4)cccc32)cc1 (stereo partly drawn) [Example 103, 3-hydroxy-5-(4-(((R)-4-(4-(trifluoromethoxy)phenoxy)-2,3-dihydro-1H-inden-1-yl)oxy)phenyl)isothiazole 1-oxide] | < 0.3 µM |
| [O-][s+]1nc(O)cc1-c1ccc(OCc2ccc(Oc3ccccc3)cc2)cc1 (single isomer, unassigned) [Example 160, 3-hydroxy-5-(4-((4-phenoxybenzyl)oxy)phenyl)isothiazole 1-oxide] | < 0.3 µM |
| [O-][s+]1nc(O)cc1-c1ccc(O[C@@H]2CCc3c(-c4cccc5c4oc4ccccc45)cccc32)cc1 (single isomer, unassigned) [Example 80] | < 0.3 µM |
| Cc1cncc(-c2cccc3c2CC[C@H]3Oc2ccc(-c3cc(O)n[s+]3[O-])cc2)c1 (stereo partly drawn) [Example 72, 5-(4-(((R)-4-(5-methylpyridin-3-yl)-2,3-dihydro-1H-inden-1-yl)oxy)phenyl)-3-hydroxyisothiazole 1-oxide] | < 0.3 µM |
| [O-][s+]1nc(O)cc1-c1ccc(O[C@@H]2CCc3c(-c4cncc(Cl)c4)cccc32)cc1 (stereo partly drawn) [Example 73, 5-(4-(((R)-4-(5-chloropyridin-3-yl)-2,3-dihydro-1H-inden-1-yl)oxy)phenyl)-3-hydroxyisothiazole 1-oxide] | < 0.3 µM |
| CCOCCOc1ccc(Oc2cccc3c2CC[C@H]3Oc2ccc(-c3cc(O)n[s+]3[O-])cc2)c(C)n1 (stereo partly drawn) [Example 102, 5-(4-(((R)-4-((6-(2-ethoxyethoxy)-2-methylpyridin-3-yl)oxy)-2,3-dihydro-1H-inden-1-yl)oxy)phenyl)-3-hydroxyisothiazole 1-oxide] | < 0.3 µM |
| COc1cc(F)ccc1-c1cccc2c1CC[C@H]2Oc1ccc(-c2cc(O)n[s+]2[O-])cc1 (stereo partly drawn) [Example 51, 5-(4-(((R)-4-(4-fluoro-2-methoxyphenyl)-2,3-dihydro-1H-inden-1-yl)oxy)phenyl)-3-hydroxyisothiazole 1-oxide] | < 0.3 µM |
| Cc1ccc(Cl)c(-c2cccc3c2CC[C@H]3Oc2ccc(-c3cc(O)n[s+]3[O-])cc2)c1 (single isomer, unassigned) [Example 15] | < 0.3 µM |
| NC(=O)c1ccc(-c2cccc3c2CC[C@H]3Oc2ccc(-c3cc(O)n[s+]3[O-])cc2)cn1 (stereo partly drawn) [Example 77, 5-((1R)-1-(4-(3-hydroxy-1-oxidoisothiazole-5-yl)phenoxy)-2,3-dihydro-1H-inden-4-yl)picolinamide] | < 0.3 µM |
| [O-][s+]1nc(O)cc1-c1ccc(O[C@@H]2CCc3c(-c4ccccc4F)cccc32)cc1 (stereo partly drawn) [Example 11, 5-(4-(((R)-4-(2-fluorophenyl)-2,3-dihydro-1H-inden-1-yl)oxy)phenyl)-3-hydroxyisothiazole 1-oxide] | < 0.3 µM |
| Cc1ccc(-c2cccc3c2CC[C@H]3Oc2ccc(-c3cc(O)n[s+]3[O-])cc2)c(Cl)c1 (stereo partly drawn) [Example 43, 5-(4-(((R)-4-(2-chloro-4-methylphenyl)-2,3-dihydro-1H-inden-1-yl)oxy)phenyl)-3-hydroxyisothiazole 1-oxide] | < 0.3 µM |
| Cc1ccc(C)c(-c2cccc3c2CC[C@H]3Oc2ccc(-c3cc(O)n[s+]3[O-])cc2)c1 (stereo partly drawn) [Example 37, 5-(4-(((R)-4-(2,5-dimethylphenyl)-2,3-dihydro-1H-inden-1-yl)oxy)phenyl)-3-hydroxyisothiazole 1-oxide] | < 0.3 µM |

The next lines start with the values.

| EC50 | SMILES |
| --- | --- |
| < 0.3 µM | N#Cc1ccc(Oc2cccc(COc3ccc(-c4cc(O)n[s+]4[O-])cc3)c2)cc1 (stereo not shown) [Example 125, 4-(3-((4-(3-hydroxy-1-oxidoisothiazol-5-yl)phenoxy)methyl)phenoxy)benzonitrile] |
| < 0.3 µM | COc1ccc(OC)c(-c2cccc3c2CC[C@H]3Oc2ccc(-c3cc(O)n[s+]3[O-])cc2)c1 (stereo partly drawn) [Example 54, 5-(4-(((R)-4-(2,5-dimethoxyphenyl)-2,3-dihydro-1H-inden-1-yl)oxy)phenyl)-3-hydroxyisothiazole 1-oxide] |
| < 0.3 µM | Cc1ccc(-c2cccc3c2CC[C@H]3Oc2ccc(-c3cc(O)n[s+]3[O-])cc2)cc1F (stereo partly drawn) [Example 13, 5-(4-(((R)-4-(3-fluoro-4-methylphenyl)-2,3-dihydro-1H-inden-1-yl)oxy)phenyl)-3-hydroxyisothiazole 1-oxide] |
| < 0.3 µM | CCc1ccccc1-c1cccc2c1CC[C@H]2Oc1ccc(-c2cc(O)n[s+]2[O-])cc1 (stereo partly drawn) [Example 9, 5-(4-(((R)-4-(2-ethylphenyl)-2,3-dihydro-1H-inden-1-yl)oxy)phenyl)-3-hydroxyisothiazole 1-oxide] |
| < 0.3 µM | Cc1cc(OCCCS(C)(=O)=O)cc(C)c1-c1cccc2c1OCC2Oc1ccc(-c2cc(O)n[s+]2[O-])cc1 (single isomer, unassigned) [Example 151, 5-(4-((7-(2,6-dimethyl-4-(3-(methylsulfonyl)propoxy)phenyl)-2,3-dihydrobenzofuran-3-yl)oxy)phenyl)-3-hydroxyisothiazole 1-oxide] |
| < 0.3 µM | [O-][s+]1nc(O)cc1-c1ccc(O[C@@H]2CCc3c(-c4cc(F)cc(F)c4)cccc32)cc1 (stereo partly drawn) [Example 12, 5-(4-(((R)-4-(3,5-difluorophenyl)-2,3-dihydro-1H-inden-1-yl)oxy)phenyl)-3-hydroxyisothiazole 1-oxide] |
| < 0.3 µM | CCOc1ccc(F)cc1-c1cccc2c1CC[C@H]2Oc1ccc(-c2cc(O)n[s+]2[O-])cc1 (stereo partly drawn) [Example 4, 5-(4-(((1R)-4-(2-ethoxy-5-fluorophenyl)-2,3-dihydro-1H-inden-1-yl)oxy)phenyl)-3-hydroxyisothiazole 1-oxide] |
| < 0.3 µM | N#Cc1ccc(Oc2cccc3c2CC[C@H]3Oc2ccc(-c3cc(O)n[s+]3[O-])cc2)cc1N1CCOC1=O (stereo partly drawn) [Example 131, 4-(((R)-1-(4-(3-hydroxy-1-oxidoisothiazol-5-yl)phenoxy)-2,3-dihydro-1H-inden-4-yl)oxy)-2-(2-oxooxazolidin-3-yl)benzonitrile] |
| < 0.3 µM | [O-][s+]1nc(O)cc1-c1ccc(O[C@@H]2CCc3c(-c4cccc(Cl)c4)cccc32)cc1 (stereo partly drawn) [Example 8, 5-(4-(((R)-4-(3-chlorophenyl)-2,3-dihydro-1H-inden-1-yl)oxy)phenyl)-3-hydroxyisothiazole 1-oxide] |
| < 0.3 µM | COc1ccc(-c2cccc3c2CC[C@H]3Oc2ccc(-c3cc(O)n[s+]3[O-])cc2)c(Cl)c1 (stereo partly drawn) [Example 48, 5-(4-(((R)-4-(2-chloro-4-methoxyphenyl)-2,3-dihydro-1H-inden-1-yl)oxy)phenyl)-3-hydroxyisothiazole 1-oxide] |
| < 0.3 µM | Cc1ccc(Oc2cccc3c2CC[C@H]3Oc2ccc(-c3cc(O)n[s+]3[O-])cc2)cc1 (stereo partly drawn) [Example 93, 3-hydroxy-5-(4-(((R)-4-(p-tolyloxy)-2,3-dihydro-1H-inden-1-yl)oxy)phenyl)isothiazole 1-oxide] |
| < 0.3 µM | [O-][s+]1nc(O)cc1-c1ccc(O[C@@H]2CCc3c2cccc3N2CCCc3ccccc32)cc1 (stereo partly drawn) [Example 158, 5-(4-(((R)-4-(3,4-dihydroquinoline-1(2H)-yl)-2,3-dihydro-1H-inden-1-yl)oxy)phenyl)-3-hydroxyisothiazole 1-oxide] |
| < 0.3 µM | [O-][s+]1nc(O)cc1-c1ccc(O[C@@H]2CCc3c(Br)cccc32)cc1 (single isomer, unassigned) [Example 3] |
| < 0.3 µM | Cc1ccnc(Oc2cccc3c2CC[C@H]3Oc2ccc(-c3cc(O)n[s+]3[O-])cc2)c1 (stereo partly drawn) [Example 133, 3-hydroxy-5-(4-(((R)-4-((4-methylpyridin-2-yl)oxy)-2,3-dihydro-1H-inden-1-yl)oxy)phenyl)isothiazole 1-oxide] |
| < 0.3 µM | [O-][s+]1nc(O)cc1-c1ccc(OCCc2ccc(Oc3ccccc3)cc2)cc1 (stereo not shown) [Example 162, 3-hydroxy-5-(4-(4-phenoxyphenethoxy)phenyl)isothiazole 1-oxide] |
